Converted amounts (≈) assume the structure as drawn. Like-named read-outs stand apart in the source and are kept apart here.
What was measured:
TF1-IDH1^R132H cells [1] = test: EPO differentiation assay, cell pellet color evaluation (hemoglobinization assay); format: cell-based; conditions: concurrent schedule; COMPOUND 2 0.2 and 1.0 μM; AZA up to 1 uM
Text: (§1) EPO differentiation assay in TF1-IDH1^R132H cells. […] Endpoints assessed assays were: cell pellet color evaluation (hemoglobinization assay); HBG and KLF1 RNA by RT-qPCR; CD235a-positive cell populations by flow cytometry (differentiation markers); and Growth and apoptosis by IncuCyte Zoom real-time imaging.

TF1-IDH1^R132H cells [2] = test: HBG and KLF1 RNA by RT-qPCR in EPO differentiation assay; format: cell-based; conditions: concurrent schedule; for increase in HBG gene expression: COMPOUND 2 0.2 μM, AZA 1.0 μM, single agents or combined
Protocol: EPO differentiation assay in TF1-IDH1^R132H cells. […] Cells were treated with vehicle, AZA alone, COMPOUND 2 alone, or the combination of AZA+COMPOUND 2. In the sequential schedule, cells were pre-treated with AZA for three days before addition of COMPOUND 2. In the concurrent schedule, cells were co-treated with AZA and COMPOUND 2 throughout the assay. Endpoints assessed assays were: cell pellet color evaluation (hemoglobinization assay); HBG and KLF1 RNA by RT-qPCR; CD235a-positive cell populations by flow cytometry (differentiation markers); and Growth and apoptosis by IncuCyte Zoom real-time imaging.
Cells were treated with vehicle, AZA alone, COMPOUND 2 alone, or the combination of AZA+COMPOUND 2. In the sequential schedule, cells were pre-treated with AZA for three days before addition of COMPOUND 2. In the concurrent schedule, cells were co-treated with AZA and COMPOUND 2 throughout the assay.

TF-1-IDH1^R132H cells = test: growth and apoptosis by IncuCyte Zoom real-time imaging; format: cell-based; conditions: AZA 1 μM; for cell growth compared to the DMSO control: COMPOUND 2 0.1, 0.3 or 1.0 μM; for induction of apoptosis: late time points (>60 hrs), combination with 0.1 and 0.3 μM COMPOUND 2
Protocol: as §1
In order to track cell growth and death in real-time, a real-time analysis was performed using IncuCyte Zoom (FIG. 4).

[3] = cited from earlier work
TF1-IDH1^R132H cells [4] = test: CD235a-positive cell populations by flow cytometry in EPO differentiation assay; format: cell-based; conditions: concurrent schedule
Text: as §1

[5] = solubility in fasted state simulated intestinal fluid (FASSIF); format: physicochemical; conditions: pH 6.1, fassif, thermodynamic from solid, pH of 6.1 at 4 hours
Protocol: In comparison, amorphous spray-dried dispersions have a solubility of about 0.05 mg/mL to about 0.50 mg/mL in FASSIF at 3 hours.

SMILES: Nc1ncn([C@@H]2O[C@H](CO)[C@@H](O)[C@H]2O)c(=O)n1 [AZA, 4-amino-1-β-D-ribofuranozyl-s-triazin-2(1H)-one]
- hemoglobinization (red color of cell pellets) (TF1-IDH1^R132H cells [1]): little or no effect on cell pellet color
- increase in HBG gene expression (TF1-IDH1^R132H cells [2]): 1 fold
- cell growth compared to the DMSO control (TF-1-IDH1^R132H cells): slowed growth
- induction of apoptosis (TF-1-IDH1^R132H cells): increased apoptosis above the DMSO control
- solubility ([3]; in acetone, ethanol and methyl ketone): insoluble
- solubility ([3]; in dimethylsulfoxide (DMSO)): soluble
- solubility ([3]; in ethanol/water (50/50), propylene glycol and polyethylene glycol): slightly soluble
- solubility ([3]; in water, water-saturated octanol, 5% dextrose in water, N-methyl-2-pyrrolidone, normal saline and 5% Tween 80 in water): sparingly soluble

SMILES: N#Cc1ccnc(N2C(=O)CC[C@H]2C(=O)N(c2cncc(F)c2)[C@H](C(=O)NC2CC(F)(F)C2)c2ccccc2Cl)c1 [COMPOUND 2, (S)-N-((S)-1-(2-chlorophenyl)-2-((3,3-difluorocyclobutyl)amino)-2-oxoethyl)-1-(4-cyanopyridin-2-yl)-N-(5-fluoropyridin-3-yl)-5-oxopyrrolidine-2-carboxamide]
- hemoglobinization (red color of cell pellets) (TF1-IDH1^R132H cells [1]): increased hemoglobin production in a dose-dependent manner
- erythroid differentiation marker CD235a (Glycophorin A) expression (TF1-IDH1^R132H cells [4]): increased erythroid differentiation marker CD235a
- RNA expression of differentiation marker KLF1 (TF1-IDH1^R132H cells [2]): Dose-dependent increases
- increase in HBG gene expression (TF1-IDH1^R132H cells [2]): 25 fold
- RNA expression of differentiation marker HBG (TF1-IDH1^R132H cells [2]; combination with COMPOUND 2 0.2 μM): dose-dependent increases
- cell growth compared to the DMSO control (TF-1-IDH1^R132H cells): slightly promoted cell growth
- induction of apoptosis (TF-1-IDH1^R132H cells): no effect on induction of apoptosis

SMILES: Nc1ncn([C@H]2C[C@H](O)[C@@H](CO)O2)c(=O)n1 [Decitabine, 4-amino-1-(2-deoxy-β-D-erythro-pentofuranosyl)-1,3,5-triazin-2(1H)one]
- solubility ([3]; in dimethylsulfoxide (DMSO)): soluble
- solubility ([3]; in ethanol/water (50/50), methanol/water (50/50) and methanol): slightly soluble
- solubility ([3]; in water): sparingly soluble

SMILES: N#Cc1ccnc(N2C(=O)CC[C@H]2C(=O)N(c2cncc(F)c2)[C@H](C(=O)NC2CC(F)(F)C2)c2ccccc2Cl)c1 [Form 2, (S)-N-((S)-1-(2-chlorophenyl)-2-((3,3-difluorocyclobutyl)amino)-2-oxoethyl)-1-(4-cyanopyridin-2-yl)-N-(5-fluoropyridin-3-yl)-5-oxopyrrolidine-2-carboxamide]
- solubility at 4 h [5]: ~18 µg/mL (≈ 30.9 µM)
